In patent US20100152156A1, “2-Azetidinone Derivatives For The Treatment Of Hyperlipidaemic Diseases” (ASTRAZENECA AB, priority 2005, published 2010):

Assays:
[1] = test system: ^14C-cholesterol absorption; assay: In vivo testing of cholesterol absorption inhibitors (A); conditions: procedure A, C57BL/6 female mice
Procedure: In Vivo Testing of Cholesterol Absorption Inhibitors (A)
C57BL/6 female mice were maintained on regular chow diet and housed in individual cages to collect faeces. Mice were fasted for 3 hours and then gavaged with vehicle or compound. Half an hour later the mice were gavaged with radiolabelled cholesterol. Six hours after the ^14C-cholesterol gavage blood samples were taken via the tail and plasma prepared to determine how much cholesterol were absorbed. 24 hours after the gavage of ^14C-cholesterol the mice were bled and plasma were prepared for analysis. Faeces were collected for 24 hours to assess absorption efficiency.

[2] = Absorption in a Caco-2 cells model; assay type: in vitro ADME; conditions: human
Procedure: Absorption of the compounds of formula (I) was tested in a Caco-2 cells model (Gastroenterology 1989, 96, 736): […]

| SMILES | inhibition of ^14C-cholesterol absorption ([1]; administration of 0.2 μmol/kg by gavage) | inhibition of ^14C-cholesterol absorption ([1]; administration of 0.2 mmol/kg by gavage) | Papp [2] |
| --- | --- | --- | --- |
| CC(C)(C)[C@@H](NC(=O)CNC(=O)COc1ccc([C@@H]2[C@@H](SCC(O)c3ccc(F)cc3)C(=O)N2c2ccc(F)cc2)cc1)C(=O)N[C@H](CO)C(=O)O (single isomer, unassigned) [Example 7, N-{[4-((2R,3R)-1-(4-fluorophenyl)-3-{[(2R or S)-2-(4-fluorophenyl)-2-hydroxyethyl]thio}-4-oxoazetidin-2-yl)phenoxy]acetyl}glycyl-3-methyl-D-valyl-D-serine] | 46% |  |  |
| CC(C)(C)[C@@H](NC(=O)CNC(=O)COc1ccc([C@@H]2[C@@H](SCC(O)c3ccc(F)cc3)C(=O)N2c2ccc(F)cc2)cc1)C(=O)NCC(=O)O (single isomer, unassigned) [Example 6, N-{[4-((2R,3R)-1-(4-fluorophenyl)-3-{[(2R or S)-2-(4-fluorophenyl)-2-hydroxyethyl]thio}-4-oxoazetidin-2-yl)phenoxy]acetyl}glycyl-3-methyl-D-valylglycine] |  | 49% | 0.12 ×10⁻⁶ cm/s |
